Experimental data reported in ChEMBL document CHEMBL1201862, “PubChem BioAssay data set” (2004).
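Results reflect a 48-hour exposure of cells in 96-well plates to compound at five concentrations. Abbreviation: GI50, concentration required for 50% inhibition of growth.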 Calls of active or inactive are those of the source. Rule as the data show it: active = GI50 up to about 1.1 µM and inactive = higher.

Tests used:
Assay in all cases: DTP human tumour cell line panel, 48 h
Hs-578T = tested on: Hs-578T
SK-MEL-28 = tested on: SK-MEL-28
HOP-62 = tested on: HOP-62
EKVX = tested on: EKVX
HOP-92 = tested on: HOP-92
LOX IMVI = tested on: LOX IMVI
DU-145 = tested on: DU-145
SNB-19 = tested on: SNB-19
OVCAR-4 = tested on: OVCAR-4
NCI-H23 = tested on: NCI-H23
RXF 393 = tested on: RXF 393
Malme-3M = tested on: Malme-3M
HT-29 = tested on: HT-29
ACHN = tested on: ACHN
OVCAR-8 = tested on: OVCAR-8
786-0 = tested on: 786-0
SNB-75 = tested on: SNB-75
HL-60 = tested on: HL-60
U-251 = tested on: U-251
UO-31 = tested on: UO-31
SW-620 = tested on: SW-620
T47D = tested on: T47D
OVCAR-3 = tested on: OVCAR-3
NCI-H522 = tested on: NCI-H522
A498 = tested on: A498
NCI/ADR-RES = tested on: NCI/ADR-RES
SF-295 = tested on: SF-295
SK-MEL-5 = tested on: SK-MEL-5
UACC-62 = tested on: UACC-62
OVCAR-5 = tested on: OVCAR-5
UACC-257 = tested on: UACC-257
SK-OV-3 = tested on: SK-OV-3
CCRF-CEM = tested on: CCRF-CEM
MDA-N = tested on: MDA-N
PC-3 = tested on: PC-3
NCI-H226 = tested on: NCI-H226
HCT-15 = tested on: HCT-15
NCI-H460 = tested on: NCI-H460
SF-539 = tested on: SF-539
SN12C = tested on: SN12C
TK-10 = tested on: TK-10
IGROV-1 = tested on: IGROV-1
COLO 205 = tested on: COLO 205
MDA-MB-435 = tested on: MDA-MB-435
HCT-116 = tested on: HCT-116
KM12 = tested on: KM12
MOLT-4 = tested on: MOLT-4
MDA-MB-231 = tested on: MDA-MB-231
M14 = tested on: M14
SR = tested on: SR
SF-268 = tested on: SF-268
A549 = tested on: A549
SK-MEL-2 = tested on: SK-MEL-2
HCC 2998 = tested on: HCC 2998
K562 = tested on: K562
RPMI-8226 = tested on: RPMI-8226
MCF7 = tested on: MCF7
CAKI-1 = tested on: CAKI-1
BT-549 = tested on: BT-549

Measured: GI50

N#CSC/C(Cl)=C/Cl.N#CSC/C(Cl)=C\Cl
> 100 µM: HCT-15
active: HCC 2998 0.069 µM
inactive: Hs-578T > 100 µM | SK-MEL-28 > 100 µM | HOP-62 > 100 µM | EKVX > 100 µM | HOP-92 > 100 µM | LOX IMVI 20.4 µM | DU-145 > 100 µM | SNB-19 > 100 µM | OVCAR-4 > 100 µM | NCI-H23 > 100 µM | RXF 393 > 100 µM | Malme-3M > 100 µM | HT-29 > 100 µM | ACHN > 100 µM | OVCAR-8 > 100 µM | 786-0 > 100 µM | SNB-75 > 100 µM | HL-60 43.9 µM | U-251 > 100 µM | UO-31 > 100 µM | SW-620 > 100 µM | T47D > 100 µM | OVCAR-3 > 100 µM | NCI-H522 > 100 µM | A498 > 100 µM | NCI/ADR-RES > 100 µM | SF-295 > 100 µM | SK-MEL-5 > 100 µM | UACC-62 > 100 µM | OVCAR-5 63.2 µM | UACC-257 > 100 µM | SK-OV-3 > 100 µM | CCRF-CEM 34.8 µM | MDA-N > 100 µM | PC-3 > 100 µM | NCI-H226 > 100 µM | NCI-H460 > 100 µM | SF-539 > 100 µM | SN12C > 100 µM | TK-10 > 100 µM | IGROV-1 > 100 µM | COLO 205 > 100 µM | MDA-MB-435 > 100 µM | HCT-116 > 100 µM | KM12 > 100 µM | MOLT-4 29.7 µM | MDA-MB-231 > 100 µM | M14 > 100 µM | SR > 100 µM | SF-268 > 100 µM | A549 > 100 µM | SK-MEL-2 > 100 µM | K562 > 100 µM | RPMI-8226 92.3 µM

CCOC(=O)/C(=C\c1c(C)[nH]c2ccccc12)P(=O)(OCC)OCC
> 100 µM: HCT-15
inactive: Hs-578T > 100 µM | SK-MEL-28 > 100 µM | HOP-62 > 100 µM | EKVX > 100 µM | LOX IMVI > 100 µM | DU-145 > 100 µM | SNB-19 > 100 µM | OVCAR-4 > 100 µM | MCF7 > 100 µM | NCI-H23 > 100 µM | RXF 393 > 100 µM | Malme-3M > 100 µM | HT-29 > 100 µM | ACHN > 100 µM | OVCAR-8 > 100 µM | 786-0 > 100 µM | SNB-75 > 100 µM | U-251 > 100 µM | SW-620 > 100 µM | T47D > 100 µM | OVCAR-3 > 100 µM | NCI-H522 > 100 µM | A498 > 100 µM | NCI/ADR-RES > 100 µM | SF-295 > 100 µM | SK-MEL-5 > 100 µM | UACC-62 > 100 µM | OVCAR-5 > 100 µM | UACC-257 > 100 µM | SK-OV-3 > 100 µM | MDA-N > 100 µM | NCI-H226 > 100 µM | NCI-H460 > 100 µM | SF-539 > 100 µM | SN12C > 100 µM | TK-10 > 100 µM | IGROV-1 > 100 µM | COLO 205 > 100 µM | MDA-MB-435 > 100 µM | HCT-116 > 100 µM | KM12 > 100 µM | MOLT-4 > 100 µM | MDA-MB-231 > 100 µM | CAKI-1 > 100 µM | M14 > 100 µM | SR > 100 µM | SF-268 > 100 µM | A549 > 100 µM | HCC 2998 > 100 µM | K562 > 100 µM | RPMI-8226 > 100 µM

COc1cc(C2S/C(=C/c3ccccc3)C(=O)N2c2cc(Cl)ccc2Cl)cc(OC)c1OC (stereo not drawn)
inactive: SK-MEL-28 64.9 µM | HOP-62 46.7 µM | EKVX 24.2 µM | HOP-92 51.2 µM | LOX IMVI 15.8 µM | DU-145 35 µM | SNB-19 71.9 µM | MCF7 27 µM | BT-549 39.5 µM | NCI-H23 49.4 µM | RXF 393 39.4 µM | Malme-3M 32.8 µM | HT-29 47.1 µM | ACHN 35.8 µM | OVCAR-8 36.3 µM | 786-0 18.8 µM | HL-60 31 µM | U-251 35.7 µM | UO-31 55.7 µM | SW-620 36 µM | T47D 53.7 µM | OVCAR-3 32.3 µM | NCI-H522 21.9 µM | A498 > 100 µM | NCI/ADR-RES 28.2 µM | SF-295 60.3 µM | SK-MEL-5 35.8 µM | UACC-62 31.8 µM | UACC-257 > 100 µM | SK-OV-3 > 100 µM | CCRF-CEM 35.2 µM | MDA-N 34.5 µM | PC-3 31.6 µM | NCI-H226 40.4 µM | NCI-H460 > 100 µM | SF-539 17.9 µM | SN12C 45.9 µM | TK-10 > 100 µM | IGROV-1 18.9 µM | COLO 205 55.3 µM | MDA-MB-435 34.1 µM | HCT-116 12.5 µM | KM12 19 µM | MOLT-4 34.8 µM | MDA-MB-231 40.3 µM | CAKI-1 39.2 µM | M14 19.6 µM | SR 44.9 µM | SF-268 21.6 µM | A549 91.8 µM | SK-MEL-2 38.8 µM | HCC 2998 > 100 µM | K562 47 µM | RPMI-8226 36.2 µM
38.3 µM: HCT-15
